The term MIC denotes the lowest concentration found to suppress growth.

In brackets after ≈: the same amount, converted by molar mass.

The first data set relates to Mycobacterium tuberculosis. Nature of the data set: Antitubercular activity against multidrug-resistant Mycobacterium tuberculosis by two fold serial dilution method. In kind it is functional.
With `COc1cc2c(cc1OC)C1=NN(C(=O)Nc3ccc([N+](=O)[O-])cc3)C(c3ccncc3)C1C2` (stereo not given), the minimal inhibitory concentration (MIC) was above 13.6 µM.
On the same count and under the same terms, as for `COc1cc2c(cc1OC)C1=NN(C(=O)Nc3ccc([N+](=O)[O-])cc3)C(c3ccc(F)cc3)C1C2` (stereo not given), the figure is 6.32 µM (≈ 3.01 µg/mL).
`COc1cc2c(cc1OC)C1=NN(C(N)=O)C(c3ccccc3)C1C2` (stereo not given): the minimum inhibitory concentration (MIC) is above 11.8 µM.
Still for that read-out and setting: as for `COc1cc2c(cc1OC)C1=NN(C(N)=O)C(c3ccncc3)C1C2` (stereo not given), the figure is above 11.8 µM; as for `NNC(=O)c1ccncc1` [ISONIAZID], 45.6 µM (≈ 6.25 µg/mL).
`COc1ccc(C2C3Cc4cc(OC)c(OC)cc4C3=NN2C(=O)Nc2ccc(Cl)cc2)cc1OC` (stereo not given): the MIC is above 9.8 µM.
`COc1cc2c(cc1OC)C1=NN(C(=O)Nc3ccc(Cl)cc3)C(c3ccc(F)cc3)C1C2` (stereo not given) displayed an MIC of 3.32 µM (≈ 1.55 µg/mL).
In turn, `COc1ccc(C2C3Cc4cc(OC)c(OC)cc4C3=NN2C(=O)Nc2ccc([N+](=O)[O-])cc2)cc1OC` (stereo not given) showed an MIC above 12.1 µM.
For `COc1cc2c(cc1OC)C1=NN(C(=O)Nc3ccc(Cl)cc3)C(c3ccccc3Cl)C1C2` (stereo not given), the MIC is above 13.9 µM.
Still for that read-out and setting: as for `COc1cc2c(cc1OC)C1=NN(C(=O)Nc3ccc([N+](=O)[O-])cc3)C(c3ccccc3Cl)C1C2` (stereo not given), the figure is above 12.7 µM.
Same read-out and setting: with `COc1ccc(C2C3Cc4cc(OC)c(OC)cc4C3=NN2C(=O)Nc2ccc(Cl)cc2)cc1` (stereo not given) the figure was above 10.5 µM; with `COc1cc2c(cc1OC)C1=NN(C(=O)Nc3ccc(Cl)cc3)C(c3ccccc3)C1C2` (stereo not given), 10.5 µM (≈ 4.69 µg/mL).
Compound `COc1ccc(C2C3Cc4cc(OC)c(OC)cc4C3=NN2C(N)=O)cc1OC` (stereo not given) displayed an MIC above 10.1 µM.
The same measure, in the same setting: as for `COc1ccc(C2C3Cc4cc(OC)c(OC)cc4C3=NN2C(=O)Nc2ccc([N+](=O)[O-])cc2)cc1` (stereo not given), the figure is above 12.8 µM; as for `COc1ccc(C2C3Cc4cc(OC)c(OC)cc4C3=NN2C(N)=O)cc1` (stereo not given), above 10.9 µM.
On the same count and under the same terms, as for `COc1cc2c(cc1OC)C1=NN(C(N)=O)C(c3ccccc3Cl)C1C2` (stereo not given), the figure is above 10.8 µM; as for `COc1cc2c(cc1OC)C1=NN(C(N)=O)C(c3ccc(F)cc3)C1C2` (stereo not given), 6.62 µM (≈ 2.35 µg/mL).
`COc1cc2c(cc1OC)C1=NN(C(=O)Nc3ccc([N+](=O)[O-])cc3)C(c3ccccc3)C1C2` (stereo not given): inhibition of growth (MIC) required 13.6 µM (≈ 6.24 µg/mL).
Still for that read-out and setting: as for `COc1cc2c(cc1OC)C1=NN(C(=O)Nc3ccc(Cl)cc3)C(c3ccncc3)C1C2` (stereo not given), the figure is 10 µM (≈ 4.49 µg/mL).

System in the next data set: not listed separately
The data set can be described thus: Safety index, ratio of IC50 for african green monkey Vero cells to MIC for multidrug-resistant Mycobacterium tuberculosis. The format is toxicity, cell-based.
On to `COc1cc2c(cc1OC)C1=NN(C(=O)Nc3ccc(Cl)cc3)C(c3ccc(F)cc3)C1C2` (stereo not given), for which the selectivity ratio stood at 40.3.

For the origin of these results see ChEMBL document CHEMBL1909540, “Synthesis and antimycobacterial evaluation of 3a,4-dihydro-3H-indeno [1,2-c] pyrazole-2-carboxamide analogues” (Eur J Med Chem, 2011).
